Test system: Arabidopsis thaliana leaves
Experiment: Non-targeted metabolomics of Arabidopsis thaliana leaves treated with short peptide
Assay type: in vivo
Details: 0.01 mg/mL, vs GFP control
Description: In this experiment, the materials used for metabonomics analysis and phytohormone detection are Arabidopsis thaliana samples with consistent growth status. Synthetic short peptide of GSS1-PI with the corresponding concentration and mass was weighed and dissolved in 0.1% DMSO to obtain a 0.01 mg/mL treatment solution. A wild-type Arabidopsis thaliana plant of about four weeks old was taken, two cotyledons were collected and mechanically damaged to obtain three small holes, 2 μL of the GSS1-PI solution was added dropwise into each small hole, while GFP solution was used as the control group. After 24 h and 48 h of treatment, approximately 0.2 g of Arabidopsis thaliana leaves were collected, and each treatment had three biological replicates. The leaves were quickly placed in liquid nitrogen and stored in a −80° C. ultra-low temperature refrigerator for subsequent phytohormone group detection and metabolomic analysis.
100 mg of Arabidopsis thaliana leaves was taken and added with liquid nitrogen for full grinding, and the fine powder was put in a 1.5 mL centrifuge tube. 500 μL of 80% methanol aqueous solution was pipette in the centrifuge tube and subjected to vortex oscillation to mix well, and the centrifuge tube was put on ice for 5 min. After standing, the mixture was centrifuged at 15000 g at 4° C. for 20 min. Then, 200 μL of supernatant was pipette and diluted with appropriate amount of mass spectrometry water until the methanol content in the solution was 53%. The dilution was centrifuged again for 20 min, the supernatant was retained and loaded for LC-MS analysis of the sample.
Related instruments were set as follows: chromatographic column temperature: 40° C.; injection flow rate: 0.2 mL/min; Positive ion mode: 0.1% formic acid for mobile phase A; mass grade methanol for mobile phase B; Negative ion mode: 5 mM ammonium acetate for mobile phase A, and mass grade methanol for mobile phase B.
The scanning range was m/z 100-1500: the setting of ESI signal source was as follows: spray voltage: […]; sheath gas flow rate: 35 psi; auxiliary gas flow rate: 10 L/min; ion transport tube temperature: 320° C.; iontophoresis RF frequency: 60; auxiliary heater temperature: 350° C.; MS/MS secondary scanning is set to dependency scanning data.
After the experiment was completed, the relevant data files were imported into the database search software for analysis and processing, and the residence time, mass-to-charge ratio and other related parameters of each metabolite were simply screened and checked. In order to identify more accurately, the different samples were peak-aligned, with the retention time deviation of 0.2 min and mass deviation of 5 ppm. Then peak extraction and peak area quantification were carried out to integrate the target ions, and then ion peaks were predicted by molecular formula and compared with local data. In order to remove the interference of background ions, the original quantitative results were standardized and blank sample controls were added. Finally, the relative quantitative results of the relevant metabolites were obtained and identified.
Multivariate statistical analysis of metabolite data included two parts, component analysis (PCA) and partial least squares discriminant analysis (PLS-DA). The data was converted by metaX, a metabonomics processing software, to get the VIP value of each metabolite. In univariate analysis, the statistical significance (P value) between the two groups of metabolites was analyzed by t test, and the fold change of metabolites between the two groups, that is, FC value, was calculated. The default screening criteria for differential metabolites were VIP>1, P value<0.05 and FC≥2 or FC≤0.5.

PDYKQKLRDSKAWESLETIGIPLDADVM (insect-derived short peptide) [GSS1-PI]
log2FC 2-Phenylacetamide (24 h): 0.608
log2FC 3,4,5-Trimethoxycinnamic acid (24 h): −1.348
log2FC (−)-chimonanthine (24 h): 0.731
log2FC Coumarin (24 h): −1.039
log2FC Cytosine (24 h): 1.096
log2FC Eriodictyol (24 h): 0.908
log2FC Gracillin (24 h): −1.823
log2FC Hesperidin (24 h): 0.708
log2FC Hippuric acid (24 h): −0.465
log2FC L-arginine (24 h): −0.600
log2FC Madecassic acid (24 h): 1.041
log2FC Methyl dihydrojasmonate (24 h): 0.784
log2FC N-Methyltryptamine (24 h): −0.651
log2FC Ptaquiloside (24 h): −1.418
log2FC Quercetin 3-O-sophoroside (24 h): −2.173
log2FC Rhoifolin (24 h): 0.699
log2FC Spectinomycin (24 h): 0.579
log2FC Tiglic acid (24 h): −0.663
log2FC cis-2-Decenoic acid (24 h): −0.599
log2FC α-Linolenoyl ethanolamide (24 h): 1.586
log2FC 2′-O-Methyladenosine (48 h): 1.543
log2FC 3,4,5-Trimethoxycinnamic acid (48 h): −2.132
log2FC 5α-Dihydrotestosterone glucuronide (48 h): −1.186
log2FC 5′-Deoxy-5′-(Methylthio)Adenosine (48 h): 1.330
log2FC 20-Hydroxyecdysone (48 h): −1.153
log2FC Allantoic acid (48 h): −1.815
log2FC Alpha-Mangostin (48 h): 1.363
log2FC Benzamide (48 h): 1.564
log2FC Camelliaside A (48 h): 1.640
log2FC Cimifugin (48 h): 1.872
log2FC Coumarin (48 h): −1.930
log2FC Cucurbitacin E (48 h): 1.309
log2FC DL-Methionine (48 h): 1.393
log2FC DL-Panthenol (48 h): 1.615
log2FC N-(p-Coumaroyl) serotonin (48 h): −1.010
log2FC Neopterin (48 h): 1.709
log2FC Saikosaponin B4 (48 h): −1.655
log2FC Sclareolide (48 h): −2.003
log2FC Scopoletin (48 h): −1.518
log2FC Sinapinic acid (48 h): −1.203

Reference: patent US20250197461A1, “Insect-derived short peptide for improving abscisic acid (ABA) content in cruciferous plant” (Gannan Normal University, priority 2023, published 2025)
